Measured values: US20110014308A1, “NOVEL COMPOSITIONS AND USE THEREOF FOR THE TREATMENT, CO-TREATMENT OR PREVENTION OF INFLAMMATORY DISORDERS” (priority 2007, published 2011)

Key:
Type in all cases: cell-based
MMP-2 = MMP-2 gene expression (mRNA, RT-PCR) in IL1beta-treated normal human chondrocytes; conditions: catabolic gene, % of IL1beta-treated cells (set at 100%), HT 1.925 mg/L, CS 500 mg/L, or both
Protocol: (§1) Catabolic events are controlled by the expression of genes, e.g. those genes that encode matrix metalloproteinases (MMPs) that eventually break down collagen. Of the MMPs, MMP-1 and MMP-3 have a major role in the degradation of the ECM and thus in cartilage erosion. The effect of HT in combination with chondroitin was tested on the expression of human aggrecan or collagen I in normal human chondrocytes (derived from knee) (CC-2550; Cambrex, respectively). OH-tyrosol (HT) was from Cayman Chemicals or from DSM; chondroitin sulfate (from shark) was purchased from Sigma. A control experiment without the compounds was done concomitantly to compare the expression of these genes. Normal human chondrocytes were cultured for 4 hours or 4 days with HT (at 12.5 micromol/L), chondroitin (at 500 mg/L) as well as with both. The level of mRNA was determined by RT-PCR (Richard et al. Mol. Nutr. Food Res. 49, 431-442, 2005) and expressed relative to the level observed in cells cultured without the substances. The given values indicate the level of gene expression (in % of unstimulated cells [set at 100%] for anabolic and anti-catabolic genes; in % of IL1beta-treated cells [set at 100%], for catabolic genes). […]

MMP-1 = MMP-1 gene expression (mRNA, RT-PCR) in IL1beta-treated normal human chondrocytes; conditions: catabolic gene, % of IL1beta-treated cells (set at 100%), HT 1.925 mg/L, CS 500 mg/L, or both
Protocol: as §1

human aggrecan = assay: Aggrecan gene expression (mRNA, RT-PCR) in normal human chondrocytes; conditions: anabolic gene, % of unstimulated cells (set at 100%), CS 500 mg/L, or both; for Aggrecan (unstim., 4 hrs) level of gene expression: HT 1.925 mg/L (12.5 micromol/L); for Aggrecan (unstim. 4 d) level of gene expression: HT 1.925 mg/L
Description: (§2) In articular cartilage, the balance between anabolic (build-up) and catabolic (break down) events needs to be maintained in order to prevent hypertrophy and excessive degradation of extracellular matrix (ECM), respectively. The ECM is built up of collagen and proteoglycans that are the products of collagen genes, for example human collagen I or aggrecan genes which are actived during anabolic events. A substance which increases expression of these genes or the respective proteins (i.e. collagen and aggrecan) favors cartilage regeneration and/or build-up. The effect of HT in combination with chondroitin was tested on the expression of human aggrecan or collagen I in normal human chondrocytes (derived from knee) (CC-2550; Cambrex, respectively). OH-tyrosol (HT) was from Cayman Chemicals or from DSM; chondroitin sulfate (from shark) was purchased from Sigma. A control experiment without the compounds was done concomitantly to compare the expression of these genes. Normal human chondrocytes were cultured for 4 hours or 4 days with HT (at 12.5 micromol/L), chondroitin (at 500 mg/L) as well as with both. The level of mRNA was determined by RT-PCR (Richard et al. Mol. Nutr. Food Res. 49, 431-442, 2005) and expressed relative to the level observed in cells cultured without the substances. The given values indicate the level of gene expression (in % of unstimulated cells [set at 100%] for anabolic and anti-catabolic genes; in % of IL1beta-treated cells [set at 100%], for catabolic genes). The combination of HT was used at 12.5 micromol/L (=1.925 mg/L), while the chondroitin sulfate (CS) was tested at 500 mg/L. The results shown in Table 1 indicate that a HT altered the expression of anabolic genes such as aggrecan or collagen. Similar effects were elicited by chondroitin. Yet, when combined the observed increase in gene expression exceeded the expected value reflecting a synergistic interaction.

MMP-13 = MMP-13 gene expression (mRNA, RT-PCR) in IL1beta-treated normal human chondrocytes; conditions: catabolic gene, % of IL1beta-treated cells (set at 100%), HT 1.925 mg/L, CS 500 mg/L, or both
Protocol: as §1

IL-1beta = IL-1beta gene expression (mRNA, RT-PCR) in IL1beta-treated normal human chondrocytes; conditions: catabolic gene, % of IL1beta-treated cells (set at 100%), HT 1.925 mg/L, CS 500 mg/L, or both
Protocol: as §2, with “The” for “In articular cartilage, the balance between anabolic (build-up) and catabolic (break down) events needs to be maintained in order to prevent hypertrophy and excessive degradation of extracellular matrix (ECM), respectively. The ECM is built up of collagen and proteoglycans that are the products of collagen genes, for example human collagen I or aggrecan genes which are actived during anabolic events. A substance which increases expression of these genes or the respective proteins (i.e. collagen and aggrecan) favors cartilage regeneration and/or build-up. The”

human collagen I = assay: Collagen I gene expression (mRNA, RT-PCR) in normal human chondrocytes; conditions: anabolic gene, % of unstimulated cells (set at 100%), HT 1.925 mg/L, CS 500 mg/L, or both
Description: as §2, with “The given values indicate the level of gene expression (in % of unstimulated cells [set at 100%] for anabolic and anti-catabolic genes; in % of IL1beta-treated cells [set at 100%], for catabolic genes). The combination of HT was used at 12.5 micromol/L (=1.925 mg/L), while the chondroitin sulfate (CS) was tested at 500 mg/L. The results shown in Table 1 indicate that a HT altered the expression of anabolic genes such as aggrecan or collagen. Similar effects were elicited by chondroitin. Yet, when combined the observed increase in gene expression exceeded the expected value reflecting a synergistic interaction.” left out

Molecule | MMP-2 (stim., 4 hrs) level of gene expression (MMP-2) | MMP-1 (stim., 4 d) level of gene expression (MMP-1) | Aggrecan (unstim., 4 hrs) level of gene expression (human aggrecan) | Aggrecan (unstim. 4 d) level of gene expression (human aggrecan) | MMP-13 (stim., 4 hrs) level of gene expression (MMP-13) | IL-1beta (stim., 4 hrs) level of gene expression (IL-1beta) | Collagen 1 (unstim. 4 d) level of gene expression (human collagen I)
OCCc1ccc(O)c(O)c1 [HT, 2-(3,4-dihydroxyphenyl)-ethanol] | 102% | 109% | 115% | 118% | 96% | 83% | 113%
chondroitin sulfate [CS] | 116% | 122% | 113% | 97% | 90% | 91% | 103%
